Experimental data as given in patent US20130274127A1, “GENE EXPRESSION MARKERS FOR PREDICTION OF RESPONSE TO PHOSPHOINOSITIDE 3-KINASE INHIBITORS” (GENOMIC HEALTH, INC., priority 2012, published 2013).

Experiments:
Test in all cases: NCI-60 in vitro drug sensitivity testing (SRB)
Format in all cases: cell-based
[1] = test system: UACC-62; details: Homo sapiens, UACC-62, read-out: GDC-0941 GI50
Source text: (§1) Cell lines used in this study were obtained from the National Cancer Institute Developmental Therapeutics program (NCI DTP) and were maintained in RPMI 1640 media (Invitrogen, Grand Island, N.Y.) containing 10% Fetal Bovine Serum (ATCC, Manassas, Va.). Cell lines were used within six months of receipt from the NCI DTP, abrogating the need for reauthentication.
(§2) 14, 2010 and Aug. 9, 2010.

[2] = test system: HS 578T; details: Homo sapiens, read-out: GDC-0941 GI50
Source text: as §1, §2

[3] = test system: MDA-MB-435; details: Homo sapiens, MDA-MB-435, read-out: GDC-0941 GI50
Source text: as §1, §2

[4] = test system: SK-MEL-28; details: Homo sapiens, SK-MEL-28, read-out: GDC-0941 GI50
Source text: as §1, §2

[5] = test system: PC-3; details: Homo sapiens, PC-3, read-out: GDC-0941 GI50
Source text: as §1, §2

[6] = test system: T-47D; details: Homo sapiens, T47D, read-out: GDC-0941 GI50
Source text: as §1, §2

[7] = test system: NCI-H322M; details: Homo sapiens, read-out: GDC-0941 GI50
Source text: as §1, §2

[8] = test system: 786-0; details: Homo sapiens, 786-0, read-out: GDC-0941 GI50
Source text: as §1, §2

[9] = test system: SN12C; details: Homo sapiens, read-out: GDC-0941 GI50
Source text: as §1, §2

[10] = test system: COLO 205; details: Homo sapiens, COLO 205, read-out: GDC-0941 GI50
Source text: as §1, §2

[11] = test system: LOX IMVI; details: Homo sapiens, read-out: GDC-0941 GI50
Source text: as §1, §2

[12] = test system: SW-620; details: Homo sapiens, SW-620, read-out: GDC-0941 GI50
Source text: as §1, §2

[13] = test system: OVCAR-8; details: Homo sapiens, OVCAR-8, read-out: GDC-0941 GI50
Source text: as §1, §2

[14] = test system: IGROV1; details: Homo sapiens, IGROV-1, read-out: GDC-0941 GI50
Source text: as §1, §2

[15] = test system: UO-31; details: Homo sapiens, UO-31, read-out: GDC-0941 GI50
Source text: as §1, §2

[16] = test system: HT29; details: Homo sapiens, HT-29, read-out: GDC-0941 GI50
Source text: as §1, §2

[17] = test system: SNB-19; details: Homo sapiens, SNB-19, read-out: GDC-0941 GI50
Source text: as §1, §2

[18] = test system: A498; details: Homo sapiens, A498, read-out: GDC-0941 GI50
Source text: as §1, §2

[19] = test system: NCI-H460; details: Homo sapiens, NCI-H460, read-out: GDC-0941 GI50
Source text: as §1, §2

[20] = test system: SNB-75; details: Homo sapiens, SNB-75, read-out: GDC-0941 GI50
Source text: as §1, §2

[21] = test system: KM12; details: Homo sapiens, KM12, read-out: GDC-0941 GI50
Source text: as §1, §2

[22] = test system: CAKI-1; details: Homo sapiens, CAKI-1, read-out: GDC-0941 GI50
Source text: as §1, §2

[23] = test system: MALME-3M; details: Homo sapiens, read-out: GDC-0941 GI50
Source text: as §1, §2

[24] = test system: OVCAR-5; details: Homo sapiens, OVCAR-5, read-out: GDC-0941 GI50
Source text: as §1, §2

[25] = test system: MDA-MB-468; details: Homo sapiens, MDA-MB-468, read-out: GDC-0941 GI50
Source text: as §1, §2

[26] = test system: TK-10; details: Homo sapiens, TK-10, read-out: GDC-0941 GI50
Source text: as §1, §2

[27] = test system: SK-OV-3; details: Homo sapiens, SK-OV-3, read-out: GDC-0941 GI50
Source text: as §1, §2

[28] = test system: SF-268; details: Homo sapiens, SF-268, read-out: GDC-0941 GI50
Source text: as §1, §2

[29] = test system: RPMI-8226; details: Homo sapiens, RPMI-8226, read-out: GDC-0941 GI50
Source text: as §1, §2

[30] = test system: HL-60(TB); details: Homo sapiens, read-out: GDC-0941 GI50
Source text: as §1, §2

[31] = test system: SK-MEL-2; details: Homo sapiens, SK-MEL-2, read-out: GDC-0941 GI50
Source text: as §1, §2

[32] = test system: RXF 393; details: Homo sapiens, RXF 393, read-out: GDC-0941 GI50
Source text: as §1, §2

SMILES: CS(=O)(=O)N1CCN(Cc2cc3nc(-c4cccc5[nH]ncc45)nc(N4CCOCC4)c3s2)CC1 [GDC-0941]
- GI50 [1]: 112 nM
- GI50 [2]: 71 nM
- GI50 [3]: 204 nM
- GI50 [4]: 617 nM
- GI50 [5]: 138 nM
- GI50 [6]: 11 nM
- GI50 [7]: 209 nM
- GI50 [8]: 295 nM
- GI50 [9]: 229 nM
- GI50 [10]: 269 nM
- GI50 [11]: 708 nM
- GI50 [12]: 832 nM
- GI50 [13]: 646 nM
- GI50 [14]: 26 nM
- GI50 [15]: 78 nM
- GI50 [16]: 120 nM
- GI50 [17]: 1150 nM
- GI50 [18]: 123 nM
- GI50 [19]: 204 nM
- GI50 [20]: 14 nM
- GI50 [21]: 708 nM
- GI50 [22]: 178 nM
- GI50 [23]: 138 nM
- GI50 [24]: 117 nM
- GI50 [25]: 110 nM
- GI50 [26]: 550 nM
- GI50 [27]: 83 nM
- GI50 [28]: 741 nM
- GI50 [29]: 3470 nM
- GI50 [30]: 58 nM
- GI50 [31]: 759 nM
- GI50 [32]: 251 nM
